Measured values reported in paper PMC12287315 (Nature Communications, 2025).

Experiments:
[1] = tested on: NAc neurons of Pdyn-Cre mice; assay type: cell-based, mouse; conditions: 10 μM JNJ-3792165; in words
[2] = tested on: MHb neurons; assay: Live calcium imaging; assay type: cell-based, mouse; conditions: in words
[3] = molecular target: T1, GPR139 (Homo sapiens, UniProt Q6DWJ6); assay: CalFluxVTN BRET calcium assay, GPR139-transfected HEK293T/17 cells; assay type: cell-based; conditions: in words
T1 sequence (Q6DWJ6 1-353): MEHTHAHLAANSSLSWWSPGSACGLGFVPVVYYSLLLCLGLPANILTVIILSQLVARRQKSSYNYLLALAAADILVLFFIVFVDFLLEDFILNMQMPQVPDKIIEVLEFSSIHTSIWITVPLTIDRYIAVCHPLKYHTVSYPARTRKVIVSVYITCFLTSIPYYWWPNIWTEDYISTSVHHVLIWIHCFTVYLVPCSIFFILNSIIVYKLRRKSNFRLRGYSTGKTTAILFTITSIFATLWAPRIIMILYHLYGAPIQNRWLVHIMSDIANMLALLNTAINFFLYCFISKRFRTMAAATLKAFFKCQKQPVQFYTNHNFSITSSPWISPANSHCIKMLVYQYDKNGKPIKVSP

[4] = tested on: HiBit-GPR139; assay: HiBiT-GPR139 surface abundance / internalization assay, HEK293T/17 cells; conditions: 40 μM Dyngo-4a, 10 μM PitStop 2, 4 mM MβCD applied 15 min before; 40 μM Dyn A13; in words
[5] = tested on: MHb neurons; assay type: cell-based, mouse
[6] = tested on: GPR139 / Gα11; assay: G protein BRET assay, Gα11 activation; assay type: cell-based, human; conditions: in words; for GPR139 coupling activity with Gα11: 10 µM
[7] = molecular target: T1, GPR139; assay type: binding; conditions: in words
[8] = tested on: GPR139 / GαoA; assay: G protein BRET assay, GαoA activation; assay type: cell-based, human; conditions: 10 µM; in words
[9] = tested on: GPR139-SmBit / β-arrestin2; assay: NanoBiT β-arrestin2 recruitment assay; assay type: cell-based, human
[10] = tested on: GPR139-SmBit / β-arrestin1; assay: NanoBiT β-arrestin1 recruitment assay; assay type: cell-based, human

## Cc1cccc(NC(=O)c2cc(C)n(Cc3c(Cl)cccc3Cl)n2)c1 [JNJ-3792165]
[1]
  effect on jGCaMP7s response to optogenetic stimulation: completely abolished
[2]
  effect on Dyn A17-induced Ca2+ response: completely blocked
[3]; 10 μM JNJ-3792165
  effect of antagonist on peptide-induced Ca2+ responses: blocked

## methyl-beta-cyclodextrin [MβCD]
[4]
  effect on Dyn A13-mediated GPR139 internalization: had no effect

## C=CCN1CC[C@]23c4c5ccc(O)c4O[C@H]2C(=O)CC[C@@]3(O)[C@H]1C5 [naloxone]
[5]
  effect on Dyn A17 inhibition of neuronal firing: blocked
[6]; 100 µM Naloxone, 5 µM Dyn A17
  block of G protein activation by GPR139: did not block G protein activation by GPR139

## adrenocorticotropic hormone (SYSMEHFRWGKPVGKKRRPVKVYPNGAEDESAEAFPLEF; Corticotropin; UniProt P01189 138-176, looked up) [ACTH]
[7]
  competition with [3H]-JNJ-63533054 binding: only modest binding
[8]
  GPR139 coupling activity with GαoA: did not show any significant coupling activity
[3]; 10 μM, 3 independent experiments
  CalFluxVTN signal compared to control cells not expressing GPR139: significant signals
[6]
  GPR139 coupling activity with Gα11: did not show any significant coupling activity

## α-MSH
[8]
  GPR139 coupling activity with GαoA: did not show any significant coupling activity
[6]
  GPR139 coupling activity with Gα11: did not show any significant coupling activity

## L-enk: inactive Leu-enkephalin as a negative control
[7]
  competition with [3H]-JNJ-63533054 binding: no competition
[8]
  GPR139 coupling activity with GαoA: Neither did we observe G protein activation
[6]
  GPR139 coupling activity with Gα11: Neither did we observe G protein activation

## C[C@H](NC(=O)CNC(=O)c1cccc(Cl)c1)c1ccccc1 [JNJ-63533054]
[9]
  β-arrestin 2 recruitment to GPR139: did not observe recruitment of β-arrestins
[10]
  β-arrestin 1 recruitment to GPR139: did not observe recruitment of β-arrestins
